This note sets out measurements from PMC8703611, “Cyclic Peptides from the Soft Coral-Derived Fungus Aspergillus sclerotiorum SCSIO 41031” (Marine Drugs, 2021).

A short description of series [1]: Cytotoxicity against HONE1, CCK-8 method. Format: cell-based, human. The following applies: CCK-8, OD at 450 nm, 72 h, average values of three parallel experiments. The method, then:
(§1) The THP-1, HONE1, and HONE1-EBV cell lines were obtained from Sun Yat-sen University Cancer Center. The cytotoxic activity was determined by the CCK-8 (Dojindo) method. Briefly, THP-1, HONE1, and HONE1-EBV cells were cultured in DMEM media supplemented with 10% […] (FBS), respectively. The cells were seeded at a density of 400 to 800 cells/well in 384-well plates and then incubated with the compounds in a gradient concentration (50.0, 10.0, 2.0, 0.4, and 0.08 μM) or with a solvent control for 72 h, followed by the addition of CCK-8 reagent. The OD value of each well was measured at 450 nm using a SpectraMax M5 Microplate Reader (Molecular Devices). Sorafenib functioned as the positive control. Dose–response curves were plotted to determine IC50 based upon the average values of three parallel experiments using Prism 5.0.

The nature of series [2]: Cytotoxicity against HONE1-EBV, CCK-8 method. Format: cell-based, human. The following applies: CCK-8, OD at 450 nm, 72 h, average values of three parallel experiments. The method, then:
as §1

Series [3] deals with acetylcholinesterase (Homo sapiens, UniProt P22303). The series is described as follows: AChE inhibition, modified Ellman's method. The series is classed as biochemical. As to the method:
The AChE inhibition activity was measured based on the modified Ellman’s method. Tacrine was used as positive drug. The inhibition rates of AChE were calculated using Origin 8.0 software.

Molecules are shown by their SMILES.

Sequence of acetylcholinesterase (P22303 32-614): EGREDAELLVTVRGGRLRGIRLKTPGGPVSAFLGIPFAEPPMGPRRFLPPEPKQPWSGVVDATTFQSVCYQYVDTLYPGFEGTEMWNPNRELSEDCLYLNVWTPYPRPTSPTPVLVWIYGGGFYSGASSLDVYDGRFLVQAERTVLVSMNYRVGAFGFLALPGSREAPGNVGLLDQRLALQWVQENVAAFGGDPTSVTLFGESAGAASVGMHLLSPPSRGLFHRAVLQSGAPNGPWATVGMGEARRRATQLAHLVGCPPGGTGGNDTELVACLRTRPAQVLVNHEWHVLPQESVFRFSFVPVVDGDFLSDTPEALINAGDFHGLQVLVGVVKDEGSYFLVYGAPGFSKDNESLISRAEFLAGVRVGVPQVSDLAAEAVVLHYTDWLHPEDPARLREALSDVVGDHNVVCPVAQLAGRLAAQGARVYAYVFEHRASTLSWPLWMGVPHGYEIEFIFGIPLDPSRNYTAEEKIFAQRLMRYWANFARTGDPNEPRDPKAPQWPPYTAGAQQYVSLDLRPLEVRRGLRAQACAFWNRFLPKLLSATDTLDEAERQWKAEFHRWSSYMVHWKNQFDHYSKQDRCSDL

Regarding `CCCCCCCC[C@H](C)[C@@H]1CC(=O)NCC(=O)N[C@@H](C(C)C)C(=O)N[C@H](CC(C)C)C(=O)N[C@@H](C)C(=O)N[C@@H](C(C)C)C(=O)O1` [Compound 4, Scopularide I], the IC50 in series [1] was 13 µM; in series [2] it was 10.1 µM; in series [3] it was 15.6 µM.
